Experimental findings from ChEMBL document CHEMBL5316354, “From Natural Sources to Synthetic Derivatives: The Allyl Motif as a Powerful Tool for Fragment-Based Design in Cancer Treatment” (J Med Chem, 2023) are described below.

For assay [1], the system named is BGC-823. The assay can be described thus: Antitumor activity against human BGC-823 cells assessed as cell growth inhibition. It is filed as functional, cell-based.
In assay [2] the test system is SGC-7901. The assay can be described thus: Antitumor activity against human SGC-7901 cells assessed as cell growth inhibition. It is filed as functional, cell-based.
For assay [3], the system named is MCF7. The assay can be described thus: Antitumor activity against human MCF7 cells assessed as decrease in cell viability. Type of assay: functional, cell-based.
In assay [4] the test system is MDA-MB-231. The assay can be described thus: Antitumor activity against human MDA-MB-231 cells assessed as cell viability at 0.5 uM relative to control. The settings on record: read-out: Activity. It is filed as functional.
Assay [5] concerns MCF7. The assay can be described thus: Antitumor activity against human MCF7 cells assessed as inhibition of cell proliferation. Type of assay: functional, cell-based.
For assay [6], the system named is MCF7. As to the kind of experiment: Antitumor activity against human MCF7 cells assessed as inhibition of cell proliferation in the presence of 1mM of eugenol. Type of assay: functional, cell-based.
Assay [7] concerns MCF7. The assay can be described thus: Antitumor activity against human MCF7 cells assessed as cell growth inhibition. It is filed as functional, cell-based.
For assay [8], the system named is DU-145. As to the kind of experiment: Antitumor activity against human DU-145 cells assessed as cell growth inhibition. Type of assay: functional, cell-based.
For assay [9], the system named is MCF7. As to the kind of experiment: Antitumor activity against human MCF7 cells assessed as cell growth inhibition incubated for 48 hrs. Type of assay: functional, cell-based. The settings on record: MCF7, 48 h.
In assay [10] the test system is MDA-MB-231. As to the kind of experiment: Antitumor activity against human MDA-MB-231 cells assessed as inhibition of cell proliferation at 40 uM relative to control. Type of assay: functional.
For assay [11], the system named is MDA-MB-231. The assay can be described thus: Antitumor activity against human MDA-MB-231 cells assessed as inhibition of cell proliferation at 60 uM relative to control. It is filed as functional.
Assay [12] concerns SK-BR-3. As to the kind of experiment: Antitumor activity against human SK-BR-3 cells assessed as inhibition of cell proliferation at 40 uM relative to control. Type of assay: functional.
Assay [13] concerns SK-BR-3. The assay can be described thus: Antitumor activity against human SK-BR-3 cells assessed as inhibition of cell proliferation at 60 uM relative to control. Type of assay: functional.
Assay [14] has as its system HL-60. As to the kind of experiment: Antitumor activity against human HL-60 cells assessed as cell growth inhibition. Type of assay: functional, cell-based.
Assay [15] relates to NCI-H226. As to the kind of experiment: Antitumor activity against human NCI-H226 cells assessed as cell growth inhibition. It is filed as functional, cell-based.
The test system of assay [16] is HepG2. The assay can be described thus: Antitumor activity against human HepG2 cells assessed as reduction in cell growth. Type of assay: functional, cell-based.
The subject of assay [17] is HepG2. The assay can be described thus: Cytotoxicity against human HepG2 cells. It is filed as functional.
In assay [18] the test system is SW480. The assay can be described thus: Antitumor activity against human SW480 cells assessed as inhibition of cell growth incubated for 24 to 48 hrs. Type of assay: functional, cell-based.
In assay [19] the test system is MDA-MB-231. As to the kind of experiment: Antitumor activity against human MDA-MB-231 cells assessed as cell viability at 50 uM relative to control. It is filed as functional. The settings on record: read-out: Activity.
In assay [20] the test system is MG-63. As to the kind of experiment: Antiproliferative activity against human MG-63 cells assessed as growth inhibition by MTT assay. It is filed as functional. A general note: Tetrazolium assays rely on reduction of a dye to a coloured formazan, in cell work by metabolically active cells.
The test system of assay [21] is Ca9-22. The assay can be described thus: Antitumor activity against human Ca9-22 cells assessed as cellular proliferation at 3 uM. It is filed as functional.
The test system of assay [22] is Ca9-22. As to the kind of experiment: Antitumor activity against human Ca9-22 cells assessed as cellular proliferation at 30 uM. Type of assay: functional.
Assay [23] concerns MCF7. As to the kind of experiment: Antitumor activity against human MCF7 expressing HER-2 cells assessed as cell growth inhibition. It is filed as functional, cell-based.
For assay [24], the system named is PC-3. As to the kind of experiment: Antitumor activity against human PC-3 cells assessed as cell growth inhibition. Type of assay: functional, cell-based.
Assay [25] is described as follows: Antitumor activity against human Osteosarcoma cells assessed as increase in intracellular calcium concentration. Type of assay: functional, cell-based. The following applies: Osteosarcoma cell. In general terms: A change in cytosolic calcium serves as a functional read-out for many receptors and channels.
Assay [26] is described as follows: Antitumor activity against human OC2 cells assessed as increase in cell proliferation at 10 uM relative to control. Type of assay: functional.
Assay [27] has as its system HeLa. As to the kind of experiment: Antitumor activity against human HeLa cells assessed as cell growth inhibition. Type of assay: functional, cell-based.
The test system of assay [28] is BGC-823. The assay can be described thus: Antitumor activity against human BGC-823 cells xenografted in BALB/c nude mouse assessed as tumor growth inhibition at 20 mg/kg, ip administered for 32 days relative to control. Type of assay: functional. The following applies: BGC-823, 768 h, time 32 day. (In xenograft studies the graft and the host belong to different species.)

Assay [29] deals with BGC-823. As to the kind of experiment: Antitumor activity against human BGC-823 cells xenografted in BALB/c nude mouse assessed as tumor growth inhibition at 30 mg/kg, ip administered for 32 days relative to control. It is filed as functional. The following applies: BGC-823, 768 h, time 32 day.
The subject of assay [30] is BGC-823. The assay can be described thus: Antitumor activity against human BGC-823 cells xenografted in BALB/c nude mouse assessed as tumor growth inhibition at 40 mg/kg, ip administered for 32 days relative to control. The following applies: BGC-823, 768 h, time 32 day. It is filed as functional.
The test system of assay [31] is Rattus norvegicus. The assay can be described thus: Immunomodulatory activity in testosterone propionate induced benign prostatic hyperplasia Wistar rat model assessed as reduction in prostate weight at 50 mg/kg, po relative to control. It is filed as functional.
Assay [32] concerns Rattus norvegicus. The assay can be described thus: Immunomodulatory activity in testosterone propionate induced benign prostatic hyperplasia Wistar rat model assessed as reduction in serum testosterone level at 50 mg/kg, po relative to control. It is filed as functional.
For assay [33], the system named is Rattus norvegicus. The assay can be described thus: Immunomodulatory activity in testosterone propionate induced benign prostatic hyperplasia Wistar rat model assessed as reduction in DHT level at 50 mg/kg, po relative to control. It is filed as functional.
The test system of assay [34] is SK-BR-3. The assay can be described thus: Antitumor activity against human SK-BR-3 cells assessed as cell growth inhibition. Type of assay: functional, cell-based.
The subject of assay [35] is SW-620. As to the kind of experiment: Antitumor activity against human SW620 cells assessed as cell growth inhibition. It is filed as functional, cell-based.
Assay [36] concerns NCI-H23. As to the kind of experiment: Antitumor activity against human NCI-H23 cells assessed as cell growth inhibition. It is filed as functional, cell-based.
Assay [37] relates to Rattus norvegicus. As to the kind of experiment: Immunomodulatory activity in testosterone propionate induced benign prostatic hyperplasia Wistar rat model assessed as reduction in prostate weight at 5 mg/kg, po relative to control. Type of assay: functional.
The subject of assay [38] is Rattus norvegicus. As to the kind of experiment: Immunomodulatory activity in testosterone propionate induced benign prostatic hyperplasia Wistar rat model assessed as reduction in serum testosterone level at 5 mg/kg, po relative to control. Type of assay: functional.
The subject of assay [39] is Rattus norvegicus. The assay can be described thus: Immunomodulatory activity in testosterone propionate induced benign prostatic hyperplasia Wistar rat model assessed as reduction in DHT level at 5 mg/kg, po relative to control. Type of assay: functional.

Molecules are shown by their SMILES.

Turning to `C=CCc1cc(/C=C2\CN(Cc3ccccc3)C/C(=C\c3ccc(O)c(CC=C)c3)C2=O)ccc1O`, the IC50 – broadly, the point on the concentration scale where inhibition reaches its midpoint – in assay [1] turned out to be 6.9 µM; in [2], 6 µM.

For `CCCCCCCCC(=O)NCc1ccc(O)c(OC)c1` [NONIVAMIDE], in assay [3], the IC50 was determined as 2240 µM.

With `COc1cccc2c1C(=O)c1c(O)c3c(c(O)c1C2=O)C[C@@](O)(C(=O)CO)C[C@@H]3O[C@H]1C[C@H](N)[C@H](O)[C@H](C)O1` [DOXORUBICIN], the IC50 is 38.2 µM in [1], 36.9 µM in assay [2], 0.5 µM in [5] and 0.088 µM in assay [6]. Besides, in [4], the viability at 0.5 µM is 40%.

As to `CCCCn1[se]c2ccccc2c1=O`, the IC50 amounted to 13.8 µM in [7] and 28 µM in assay [8].

Turning to `C=CCc1ccc(O)c(OC)c1` [EUGENOL], the IC50 in assay [9] was above 1500 µM. The inhibition at 40 µM in assay [10] and in assay [12] was above 90% in each case. Also, the inhibition at 60 µM in assay [11] and in [13] was above 90% throughout.

As for `C=CCc1cc(/C=C2\CC/C(=C\c3ccc(O)c(CC=C)c3)C2=O)ccc1O`, the IC50 was determined as 7.1 µM in assay [1] and 6.9 µM in assay [2].

With `C=CCc1cccc(/C=N/NC(=O)CN2CCN(Cc3ccccc3)CC2)c1O` [PAC-1], the IC50 in assay [14] is 0.92 µM; in assay [15] it was 0.35 µM; in assay [7], above 75 µM.

Consider `Cn1[se]c2ccccc2c1=O`, for which the figures for the IC50 in assay [7] and in [8] were 32.7 µM and 30.2 µM, respectively.

Regarding `C=C1[C@H](CO)[C@@H](O)C[C@@H]1n1cnc2c(=O)[nH]c(N)nc21` [ENTECAVIR ANHYDROUS], the EC50 – broadly, the midpoint of the concentration-response curve – in assay [16] worked out at 0.00375 µM. In addition, in [17], the CC50 (in general, the concentration giving 50% cytotoxicity) stood at 30 µM.

For the molecule `C=CCSC[C@H](NC(=O)Cc1ccccc1Nc1c(Cl)cccc1Cl)C(=O)OCC`, in assay [18], the IC50 was found to be 31 µM.

In the case of `C=CCSC[C@H](NC(=O)c1ccccc1O)C(=O)OCC`, the IC50 in assay [18] is 31 µM.

Take `C/C=C/c1ccc(OC)cc1` [ANETHOLE]: in assay [19], the viability at 50 µM came out at 60%. Moreover, the GI50 (usually the concentration at which growth is held to half of that of the control) in assay [20] amounted to 60.2 µM. Also, the Activity was 42.7% in assay [21] and 5.2% in [22].

In the case of `C=CCNC(=S)NC(=O)c1ccccc1`, the IC50 in assay [7] is 1.5 µM; in assay [23], 0.6 µM.

Take `C=CCOc1cccc2c1C(=O)C=C(C)C2=O`: the IC50 in assay [24] worked out at 32.2 µM.

Turning to `C=CCc1ccc2c(c1)OCO2` [SAFROLE], in assay [25], the EC50 amounted to 450 µM. Further, in assay [26], the Activity worked out at 50%.

For `C=CCSC[C@H](NC(=O)C(C)c1ccc2cc(OC)ccc2c1)C(=O)OCC` (stereo partly drawn), the IC50 in [18] amounted to 31 µM.

In the case of `CCC[C@@H](Cc1c[nH]c2ccccc12)NS(=O)(=O)c1c(C(C)C)cc(C(C)C)cc1C(C)C`, the IC50 in assay [27] was 30.8 µM.

As to `C=CCSSSCC=C` [ALLITRIDIN], the inhibition in vivo (usually the relative decrease from the control value, in per cent) at 20 mg/kg in assay [28] is 38%. Moreover, the inhibition in vivo at 30 mg/kg in assay [29] turned out to be 50%. Further, the inhibition in vivo at 40 mg/kg in [30] was found to be 57%.

For `CC(C)CCn1[se]c2ccccc2c1=O`, in assay [7], the IC50 was 29 µM.

For the molecule `O=c1c2ccccc2[se]n1C1CCCCC1`, the values for the IC50 in assay [7] and in assay [8] were 7.3 µM and 5.7 µM, respectively.

For `C/C=C/c1ccc(O)c(OC)c1`, the IC50 in assay [9] amounted to 11.4 µM.

For the molecule `C=CCSCC(N)C(=O)OOc1ccc(CNC(=O)CCCCCCCC)cc1OC` (stereo not drawn), in [3], the IC50 turned out to be 66 µM.

`C=CCSCC=C` [DIALLYL SULFIDE]: the figures for the inhibition in vivo at 50 mg/kg in [31], in assay [32] and in assay [33] were 60%, 68% and 75%, respectively.

Consider `COC1=C2C[C@@H](C)C[C@H](OC)[C@H](O)[C@@H](C)/C=C(\C)[C@H](OC(N)=O)[C@@H](OC)/C=C\C=C(/C)C(=O)NC(=CC1=O)C2=O` [GELDANAMYCIN], for which the IC50 is 0.011 µM in assay [7] and 0.004 µM in assay [34].

Take `C=CCc1cccc(/C=N/NC(=O)Cn2cnc3ccc([N+](=O)[O-])cc3c2=O)c1O`: the IC50 came to 0.07 µM in assay [35], 0.07 µM in assay [24] and 0.03 µM in assay [36].

On to `C=CCNC1=C2C[C@@H](C)C[C@H](OC)[C@H](O)[C@@H](C)/C=C(\C)[C@H](OC(N)=O)[C@@H](OC)/C=C\C=C(/C)C(=O)NC(=CC1=O)C2=O` [TANESPIMYCIN], for which the IC50 in [7] was determined as 0.005 µM; in assay [34], 0.004 µM.

For `CC(C)(C)NC(=O)[C@H]1CC[C@H]2[C@@H]3CC[C@H]4NC(=O)C=C[C@]4(C)[C@H]3CC[C@]12C` [FINASTERIDE], the inhibition in vivo at 5 mg/kg in assay [37] was determined as 53%; in assay [38] it was 55%; in [39], 52%.
